Laboratory results reported in US9732075B2, “Benzimidazole-proline derivatives” (IDORSIA PHARMACEUTICALS LTD, priority 2012, dated 2017).

Experiments:
human orexin-1 receptor = human orexin-1 receptor (Homo sapiens (Human), UniProt O43613); experiment: In vitro assay: intracellular calcium measurements (FLIPR), antagonistic activity; format: cell-based; conditions: CHO cells expressing human orexin-1 receptor, orexin-A agonist, geometric mean, read-out: IC50 Ox1
Procedure, shortened: (§1)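 Dye-loaded CHO cells expressing either human orexin receptor are exposed to test antagonist for 120 min, then stimulated with orexin-A at 3 nM.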

human orexin-2 receptor = human orexin-2 receptor (Homo sapiens (Human), UniProt O43614); experiment: as above; format: cell-based; conditions: CHO cells expressing human orexin-2 receptor, orexin-A agonist, geometric mean, read-out: IC50 Ox2
Sequence of human orexin-2 receptor (O43614 whole entry): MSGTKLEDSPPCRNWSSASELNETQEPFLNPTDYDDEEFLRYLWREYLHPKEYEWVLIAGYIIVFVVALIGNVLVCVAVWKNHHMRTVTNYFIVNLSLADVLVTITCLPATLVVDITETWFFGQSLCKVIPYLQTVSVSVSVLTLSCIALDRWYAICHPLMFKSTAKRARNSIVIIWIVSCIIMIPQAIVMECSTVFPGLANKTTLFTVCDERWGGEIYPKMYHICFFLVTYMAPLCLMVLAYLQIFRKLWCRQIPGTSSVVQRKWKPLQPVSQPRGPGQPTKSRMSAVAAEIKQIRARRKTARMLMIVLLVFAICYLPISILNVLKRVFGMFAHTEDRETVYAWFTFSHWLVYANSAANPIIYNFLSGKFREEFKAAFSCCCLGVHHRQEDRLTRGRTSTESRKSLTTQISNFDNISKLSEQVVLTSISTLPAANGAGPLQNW
Procedure, shortened: as §1

Sequence of human orexin-1 receptor (O43613 whole entry): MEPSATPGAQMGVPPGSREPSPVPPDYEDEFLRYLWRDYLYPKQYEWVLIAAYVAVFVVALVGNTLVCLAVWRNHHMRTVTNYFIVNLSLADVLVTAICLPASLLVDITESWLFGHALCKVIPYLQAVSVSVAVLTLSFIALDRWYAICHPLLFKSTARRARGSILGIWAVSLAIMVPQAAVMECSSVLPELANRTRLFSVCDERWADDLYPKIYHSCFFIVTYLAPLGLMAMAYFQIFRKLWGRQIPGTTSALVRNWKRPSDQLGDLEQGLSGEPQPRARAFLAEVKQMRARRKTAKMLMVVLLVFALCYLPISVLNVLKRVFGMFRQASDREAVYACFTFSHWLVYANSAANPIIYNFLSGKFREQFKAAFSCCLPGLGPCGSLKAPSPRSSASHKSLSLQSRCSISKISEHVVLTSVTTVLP

| Structure (SMILES) | IC50 (human orexin-1 receptor) [nM] | IC50 (human orexin-2 receptor) [nM] |
| --- | --- | --- |
| CSc1cccc2nc([C@@H]3CCCN3C(=O)c3nc(C4CC4)sc3-c3ccccc3)[nH]c12 [Ex. 1.61] | 21 | 21 |
| Cc1nc(C(=O)N2CC[C@H](C)[C@H]2c2nc3c(C(F)(F)F)cccc3[nH]2)c(-c2ccc(Cl)cc2)s1 [Ex. 4.150] | 6 | 180 |
| CO[C@H]1CN(C(=O)c2nc(C)sc2-c2cccc(Cl)c2)[C@](C)(c2nc3c(C)c(Cl)ccc3[nH]2)C1 [Ex. 3.31] | 5 | 4 |
| Cc1ccc(-n2nccn2)c(C(=O)N2CCC[C@@]2(C)c2nc3cc(F)c(Br)cc3[nH]2)c1 [Ex. 5.23] | 15 | 80 |
| Cc1cc(C)c2nc(C3CCCN3C(=O)c3nc(C)sc3-c3cccc(Cl)c3)[nH]c2c1 (racemic) [Ex. 1.102] | 17 | 17 |
| COc1ccc2nc([C@@H]3C[C@@H](OC)CN3C(=O)c3cc(C)c(C)cc3-n3nccn3)[nH]c2c1 [Ex. 3.22] | 576 | 9 |
| Cc1nc(C(=O)N2CC[C@H](C)[C@H]2c2nc3c(C(F)(F)F)cccc3[nH]2)c(-c2ccc(F)cc2)s1 [Ex. 4.149] | 14 | 752 |
| Cc1nc(C(=O)N2CC[C@H](C)[C@H]2c2nc3c(Cl)cccc3[nH]2)c(-c2ccc(F)cc2)s1 [Ex. 4.118] | 50 | 4350 |
| Cc1ccc(-n2nccn2)c(C(=O)N2CC[C@H](C)[C@H]2c2nc3c(C(F)(F)F)cccc3[nH]2)c1 [Ex. 4.34] | 37 | 1880 |
| CSc1ccc2[nH]c([C@@H]3CCCN3C(=O)c3c(-n4nccn4)ccc(C)c3F)nc2c1 [Ex. 1.179] | 486 | 28 |
| COc1ccc2nc([C@@H]3CCCN3C(=O)c3cc(OC)c(OC)cc3-n3nccn3)[nH]c2c1 [Ex. 1.162] | 458 | 27 |
| Cc1nc(C(=O)N2CCCC2c2nc3c(Br)cc(F)cc3[nH]2)c(-c2ccccc2)s1 (stereo not drawn) [Ex. 1.138] | 35 | 109 |

Continued, values first:

| IC50 (human orexin-1 receptor) [nM] | IC50 (human orexin-2 receptor) [nM] | Structure (SMILES) |
| --- | --- | --- |
| 16 | 18 | Cc1ccc(-n2nccn2)c(C(=O)N2CCC[C@@]2(C)c2nc3c(C)cc(C)cc3[nH]2)c1 [Ex. 5.16] |
| 6 | 35 | C[C@@]1(c2nc3cc(C(F)(F)F)c(Cl)cc3[nH]2)CCCN1C(=O)c1cc(F)ccc1-n1nccn1 [Ex. 5.136] |
| 113 | 1 | C[C@@]1(c2nc3cc(C(F)(F)F)ccc3[nH]2)CCCN1C(=O)c1cc(Br)ccc1-c1ccccc1 [Ex. 5.262] |
| 134 | 7 | C=C1C[C@@H](c2nc3cc(C)c(C)cc3[nH]2)N(C(=O)c2c(F)cccc2-n2nccn2)C1 [Ex. 6.191] |
| 32 | 70 | Cc1cc(C(=O)N2CCC[C@@]2(C)c2nc3c(C)cc(Br)cc3[nH]2)c(-c2ccccc2)cn1 [Ex. 5.310] |
| 87 | 270 | COCCn1c([C@]2(C)CCCN2C(=O)c2cc(C)ccc2-c2ccccc2F)nc2cc(C)c(C)cc21 [Ex. 7.54] |
| 16 | 84 | Cc1ccc(-c2cccc(F)c2)c(C(=O)N2CCC[C@@]2(C)c2nc3cc(C)c(C)cc3n2CC2CC2)c1 [Ex. 7.34] |
| 24 | 51 | Cc1ccc(-c2ccc(F)cc2)c(C(=O)N2CCC[C@@]2(C)c2nc3cc(C(F)(F)F)c(Cl)cc3[nH]2)c1 [Ex. 5.152] |
| 27 | 159 | Cc1nc(C(=O)N2CCC[C@@]2(C)c2nc3c(F)c(F)ccc3[nH]2)c(-c2ccc(Cl)cc2)s1 [Ex. 5.211] |
| 19 | 40 | C=C1CN(C(=O)c2nc(C)sc2-c2ccc(C)cc2)C(C)(c2nc3cc(OC)ccc3[nH]2)C1 (stereo not drawn) [Ex. 6.148] |
| 25 | 65 | Cc1cc(C(=O)N2CCC[C@@]2(C)c2nc3c(C)c(Cl)ccc3[nH]2)c(-c2ccccc2)cn1 [Ex. 5.264] |
| 8 | 12 | Cc1nc(C(=O)N2CCC[C@@]2(C)c2nc3c(C)c(C)c(Br)cc3[nH]2)c(-c2cccc(Cl)c2Cl)s1 [Ex. 5.272] |
